Patent US20240239755A1, “SUBSTITUTED PYRIDAZINONES, SALTS OR N-OXIDES THEREOF AND THEIR USE AS HERBICIDALLY ACTIVE SUBSTANCES” (Bayer Aktiengesellschaft, priority 2021, published 2024)

How the values were obtained:
Format in all cases: in vivo
[1] = system: Amaranthus retroflexus (AMARE); test: Herbicidal pre-emergence action, 1280 g/ha (Table A11); settings: visual grading after ca. 3 weeks vs untreated controls
Text: (§1) Seeds of mono- and dicotyledonous weed plants were sown in plastic pots (double sowings with one species of mono- and one species of dicotyledonous weed plants per pot), in sandy loam, and covered with soil. The compounds according to the invention, formulated in the form of wettable powders (WP) or as emulsifiable concentrates (EC), were applied to the surface of the covering soil as an aqueous suspension or as an emulsion, with the addition of 0.5% of an additive, at an application rate of 600 litres of water per hectare (converted). Following treatment, the pots were placed in a greenhouse and kept under optimum growth conditions for the test plants. The visual grading of the damage to the test plants was carried out after ca. 3 weeks in comparison to untreated controls (herbicidal effect in percent (%): 100% effect=plants have died, 0% effect=as control plants). Tables A1 to A11 below, show the effects of selected compounds of the general formula (I) according to Table 1 on various harmful plants and an application rate corresponding to 1280 g/ha obtained by the experimental procedure mentioned above.

Stellaria media (STEME) [2] = test: Herbicidal post-emergence action, 1280 g/ha (Table B9); settings: visual assessment after ca. 3 weeks vs untreated controls
Text: (§2) Seeds of mono- and dicotyledonous weed plants were sown in plastic pots (double sowings with one species of mono- and one species of dicotyledonous weed plants per pot), in sandy loam, covered with soil and grown under controlled growth conditions. 2 to 3 weeks after sowing, the test plants were sprayed in the single-leaf stage. The compounds according to the invention, formulated in the form of wettable powders (WP) or as emulsifiable concentrates (EC), were sprayed onto the green plant parts as an aqueous suspension or as an emulsion, with the addition of 0.5% of an additive, at an application rate of 600 litres of water per hectare (converted). The test plants were placed in the greenhouse for ca. 3 weeks under optimum growth conditions, and then the effect of the preparations was assessed visually in comparison with untreated controls (herbicidal effect in percent (%): 100% effect=plants have died, 0% effect=as control plants). Tables B1 to B11 below, show the effects of selected compounds of the general formula (I) according to Table 1 on various harmful plants using an application rate corresponding to 1280 g/ha obtained by the experimental procedure mentioned above.

[3] = system: Abutilon theophrasti (ABUTH); test: Herbicidal post-emergence action, 1280 g/ha (Table B1); settings: visual assessment after ca. 3 weeks vs untreated controls
Text: as §2

Stellaria media (STEME) [4] = test: Herbicidal post-emergence action, 320 g/ha, STEME; settings: visual grading after ca. 3 weeks
Text: as §2, with “plants).” for “plants). Tables B1 to B11 below, show the effects of selected compounds of the general formula (I) according to Table 1 on various harmful plants using an application rate corresponding to 1280 g/ha obtained by the experimental procedure mentioned above.”
(§3) Tables D1 to D8 below, show the effects of selected compounds of the general formula (I) according to Table 1 on various harmful plants using an application rate corresponding to 320 g/ha obtained by the experimental procedure mentioned above.

Kochia scoparia (KCHSC) [5] = test: Herbicidal pre-emergence action, 1280 g/ha (Table A4); settings: visual grading after ca. 3 weeks vs untreated controls
Text: as §1

[6] = system: Amaranthus retroflexus (AMARE); test: Herbicidal post-emergence action, 1280 g/ha, AMARE; settings: visual grading vs untreated controls
Text: as §2, with “plants).” for “plants). Tables B1 to B11 below, show the effects of selected compounds of the general formula (I) according to Table 1 on various harmful plants using an application rate corresponding to 1280 g/ha obtained by the experimental procedure mentioned above.”
(§4) Tables B1 to B11 below, show the effects of selected compounds of the general formula (I) according to Table 1 on various harmful plants using an application rate corresponding to 1280 g/ha obtained by the experimental procedure mentioned above.

[7] = system: Amaranthus retroflexus (AMARE); test: Herbicidal post-emergence action, 320 g/ha, AMARE; settings: visual grading after ca. 3 weeks
Text: as §2, with “plants).” for “plants). Tables B1 to B11 below, show the effects of selected compounds of the general formula (I) according to Table 1 on various harmful plants using an application rate corresponding to 1280 g/ha obtained by the experimental procedure mentioned above.”
as §3

Lolium rigidum (LOLRI) = test: Herbicidal pre-emergence action, 1280 g/ha (Table A5); settings: visual grading after ca. 3 weeks vs untreated controls
Text: as §1

Kochia scoparia (KCHSC) [8] = test: Herbicidal post-emergence action, 1280 g/ha (Table B4); settings: visual assessment after ca. 3 weeks vs untreated controls
Text: as §2

Stellaria media (STEME) [9] = test: Herbicidal pre-emergence action, 1280 g/ha (Table A9); settings: visual grading after ca. 3 weeks vs untreated controls
Text: as §1

Stellaria media (STEME) [10] = test: Herbicidal pre-emergence action, 320 g/ha, STEME; settings: visual grading after ca. 3 weeks
Text: as §1, with “plants).” for “plants). Tables A1 to A11 below, show the effects of selected compounds of the general formula (I) according to Table 1 on various harmful plants and an application rate corresponding to 1280 g/ha obtained by the experimental procedure mentioned above.”
Tables C1 to C6 below, show the effects of selected compounds of the general formula (I) according to Table 1 on various harmful plants using an application rate corresponding to 320 g/ha obtained by the experimental procedure mentioned above.

[11] = system: Matricaria inodora (MATIN); test: Herbicidal pre-emergence action, 1280 g/ha (Table A6); settings: visual grading after ca. 3 weeks vs untreated controls
Text: as §1

Veronica persica (VERPE) = test: Herbicidal post-emergence action, 1280 g/ha, VERPE; settings: visual grading vs untreated controls
Text: as §2, with “plants).” for “plants). Tables B1 to B11 below, show the effects of selected compounds of the general formula (I) according to Table 1 on various harmful plants using an application rate corresponding to 1280 g/ha obtained by the experimental procedure mentioned above.”
as §4

[12] = system: Matricaria inodora (MATIN); test: Herbicidal post-emergence action, 1280 g/ha (Table B6); settings: visual assessment after ca. 3 weeks vs untreated controls
Text: as §2

[13] = system: Abutilon theophrasti (ABUTH); test: Herbicidal post-emergence action, 320 g/ha, ABUTH; settings: visual grading after ca. 3 weeks
Text: as §2, with “plants).” for “plants). Tables B1 to B11 below, show the effects of selected compounds of the general formula (I) according to Table 1 on various harmful plants using an application rate corresponding to 1280 g/ha obtained by the experimental procedure mentioned above.”
as §3

SMILES: Cc1nn(C)c(=O)c(Oc2ccccc2)c1O [Example I-001]
- herbicidal effect AMARE [1]: 90%

SMILES: Cc1nn(C)c(=O)c(Oc2cccc(Cl)c2)c1O [Example I-004]
- herbicidal effect STEME (Stellaria media (STEME) [2]): 100%
- herbicidal effect ABUTH [3]: 90%
- herbicidal effect STEME (Stellaria media (STEME) [4]): 90%
- herbicidal effect KCHSC (Kochia scoparia (KCHSC) [5]): 90%
- herbicidal effect AMARE [1]: 90%

SMILES: Cc1nn(C)c(=O)c(Oc2cccc(C(F)(F)F)c2)c1O [Example I-005]
- herbicidal effect STEME (Stellaria media (STEME) [2]): 90%
- herbicidal effect AMARE [6]: 100%
- herbicidal effect AMARE [7]: 90%
- herbicidal effect AMARE [1]: 100%

SMILES: Cc1nn(C)c(=O)c(Oc2ccccc2Br)c1O [Example I-011]
- herbicidal effect LOLRI (Lolium rigidum (LOLRI)): 90%
- herbicidal effect KCHSC (Kochia scoparia (KCHSC) [8]): 90%
- herbicidal effect AMARE [6]: 90%
- herbicidal effect STEME (Stellaria media (STEME) [9]): 100%
- herbicidal effect STEME (Stellaria media (STEME) [10]): 90%
- herbicidal effect KCHSC (Kochia scoparia (KCHSC) [5]): 100%
- herbicidal effect MATIN [11]: 90%
- herbicidal effect AMARE [1]: 100%

SMILES: Cc1cccc(Cl)c1Oc1c(O)c(C)nn(C)c1=O [Example I-023]
- herbicidal effect STEME (Stellaria media (STEME) [2]): 90%
- herbicidal effect AMARE [6]: 90%
- herbicidal effect STEME (Stellaria media (STEME) [9]): 90%
- herbicidal effect MATIN [11]: 90%
- herbicidal effect AMARE [1]: 90%

SMILES: COc1ccccc1Oc1c(O)c(C)nn(C)c1=O [Example I-024]
- herbicidal effect VERPE (Veronica persica (VERPE)): 90%
- herbicidal effect LOLRI (Lolium rigidum (LOLRI)): 90%
- herbicidal effect STEME (Stellaria media (STEME) [2]): 90%
- herbicidal effect AMARE [6]: 90%
- herbicidal effect STEME (Stellaria media (STEME) [9]): 90%

SMILES: Cc1nn(C)c(=O)c(Oc2cccc(F)c2Cl)c1O [Example I-025]
- herbicidal effect STEME (Stellaria media (STEME) [9]): 100%
- herbicidal effect STEME (Stellaria media (STEME) [10]): 100%
- herbicidal effect MATIN [11]: 100%

SMILES: Cc1nn(C)c(=O)c(Oc2ccc(Cl)cc2C2CC2)c1O [Example I-035]
- herbicidal effect MATIN [12]: 90%
- herbicidal effect VERPE (Veronica persica (VERPE)): 90%
- herbicidal effect STEME (Stellaria media (STEME) [2]): 90%
- herbicidal effect ABUTH [13]: 90%
- herbicidal effect KCHSC (Kochia scoparia (KCHSC) [8]): 90%
- herbicidal effect ABUTH [3]: 90%
- herbicidal effect AMARE [6]: 90%
- herbicidal effect AMARE [7]: 90%
- herbicidal effect KCHSC (Kochia scoparia (KCHSC) [5]): 100%
- herbicidal effect AMARE [1]: 90%

SMILES: Cc1ccc(Oc2c(O)c(C)nn(C)c2=O)c(C2CC2)c1 [Example I-037]
- herbicidal effect STEME (Stellaria media (STEME) [2]): 90%

SMILES: CCOC(=O)Oc1c(C)nn(C)c(=O)c1Oc1ccc(C)cc1C1CC1 [Example I-038]
- herbicidal effect ABUTH [3]: 90%
- herbicidal effect AMARE [6]: 90%
